This note sets out measurements from ChEMBL document CHEMBL1152500, “Molecular recognition in the P2Y(14) receptor: Probing the structurally permissive terminal sugar moiety of uridine-5'-diphosphoglucose” (Bioorg Med Chem, 2009).

Some results are limits rather than exact numbers.

One assay addresses T1, P2Y purinoceptor 14 (Homo sapiens, UniProt Q15391).
T1 sequence (Q15391 whole entry): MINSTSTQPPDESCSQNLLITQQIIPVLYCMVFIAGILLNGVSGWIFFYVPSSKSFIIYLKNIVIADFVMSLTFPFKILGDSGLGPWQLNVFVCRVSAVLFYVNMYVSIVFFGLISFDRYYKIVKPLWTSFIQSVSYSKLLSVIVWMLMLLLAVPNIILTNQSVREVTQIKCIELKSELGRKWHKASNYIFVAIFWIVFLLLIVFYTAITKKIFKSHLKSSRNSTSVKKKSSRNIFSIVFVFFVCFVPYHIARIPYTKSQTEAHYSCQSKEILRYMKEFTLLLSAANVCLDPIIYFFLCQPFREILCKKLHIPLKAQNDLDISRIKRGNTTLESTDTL
Description: Agonist activity at human P2Y14 receptor expressed in […] cells. Format: functional, cell-based, COS-7.
Settings: not given
`O=c1ccn([C@@H]2O[C@H](COP(=O)(O)OP(=O)(O)OC[C@H]3O[C@H](O)[C@@H](O)[C@@H]3O)[C@@H](O)[C@H]2O)c(=O)[nH]1` gave an EC50 of 460 nM.
Compound `O=c1ccn([C@@H]2O[C@H](COP(=O)(O)OP(=O)(O)OC[C@H]3O[C@H](O)[C@H](O)[C@@H](O)[C@@H]3O)[C@@H](O)[C@H]2O)c(=O)[nH]1` showed an EC50 of 373 nM.
The same measure, in the same setting: the figure for `O=c1ccn([C@@H]2O[C@H](COP(=O)(O)OP(=O)(O)O[C@H]3O[C@H](CF)[C@@H](O)[C@H](O)[C@H]3O)[C@@H](O)[C@H]2O)c(=O)[nH]1` is 905 nM.
`O=c1ccn([C@@H]2O[C@H](COP(=O)(O)OP(=O)(O)O[C@H]3O[C@H](CO)[C@@H](F)[C@H](O)[C@H]3O)[C@@H](O)[C@H]2O)c(=O)[nH]1` displayed an EC50 of 567 nM.
`O=c1ccn([C@@H]2O[C@H](COP(=O)(O)OP(=O)(O)O[C@H]3O[C@H](CO)[C@@H](O)[C@H](F)[C@H]3O)[C@@H](O)[C@H]2O)c(=O)[nH]1` registered an EC50 of 361 nM.
With `CC(C)(C)OC(=O)NCCNC(=O)[C@H]1O[C@H](OP(=O)(O)OP(=O)(O)OC[C@H]2O[C@@H](n3ccc(=O)[nH]c3=O)[C@H](O)[C@@H]2O)[C@H](O)[C@@H](O)[C@@H]1O`, a half-maximal response (EC50) required 951 nM.
In turn, `C[C@H]1O[C@H](OP(=O)(O)OP(=O)(O)OC[C@H]2O[C@@H](n3ccc(=O)[nH]c3=O)[C@H](O)[C@@H]2O)[C@H](O)[C@@H](O)[C@H]1O` showed an EC50 of 562 nM.
The compound `O=c1ccn([C@@H]2O[C@H](COP(=O)(O)OP(=O)(O)OC[C@H]3O[C@H](O)[C@@H](O)[C@@H](O)[C@@H]3O)[C@@H](O)[C@H]2O)c(=O)[nH]1` registered an EC50 of 658 nM.
For the compound `CC(=O)NCCNC(=O)[C@H]1O[C@H](OP(=O)(O)OP(=O)(O)OC[C@H]2O[C@@H](n3ccc(=O)[nH]c3=O)[C@H](O)[C@@H]2O)[C@H](O)[C@@H](O)[C@@H]1O`, it took 496 nM to reach a half-maximal effect (EC50).
For `O=c1ccn([C@@H]2O[C@H](COP(=O)(O)OP(=O)(O)OC[C@H]3O[C@H](O)[C@H](O)[C@@H]3O)[C@@H](O)[C@H]2O)c(=O)[nH]1`, the EC50 stood at 238 nM.
`O=c1[nH]c(=S)ccn1[C@@H]1O[C@H](COP(=O)(O)OP(=O)(O)O[C@H]2O[C@H](CO)[C@@H](O)[C@H](O)[C@H]2O)[C@@H](O)[C@H]1O`: the half-maximal effective concentration (EC50) is 290 nM.
As to `O=c1ccn([C@@H]2O[C@H](COP(=O)(O)OP(=O)(O)O[C@@H]3[C@H](O)[C@H](O)[C@@H](O)[C@H](O)[C@H]3O)[C@@H](O)[C@H]2O)c(=O)[nH]1`, the EC50 amounted to 1880 nM.
For the compound `O=c1ccn([C@@H]2O[C@H](COP(=O)(O)OP(=O)(O)O[C@H]3O[C@H](CO)[C@@H](O)[C@H](O)[C@H]3F)[C@@H](O)[C@H]2O)c(=O)[nH]1`, a half-maximal response (EC50) required 2500 nM.
Compound `O=c1ccn([C@@H]2O[C@H](COP(=O)(O)OP(=O)(O)OC[C@H]3O[C@](O)(CO)[C@@H](O)[C@@H]3O)[C@@H](O)[C@H]2O)c(=O)[nH]1` yielded an EC50 of 323 nM.

The next assay concerns the target T2, P2Y purinoceptor 14 (Homo sapiens) (UniProt Q15391).
T2 sequence (whole entry): T1 sequence (Q15391 whole entry)
Put plainly: Agonist activity at human P2Y14 receptor expressed in […] cells at 10 uM. Format: functional, cell-based. The following applies: COS-7.
Compound `O=c1ccn([C@@H]2C[C@H](COP(=O)(O)OP(=O)(O)O[C@H]3O[C@H](CO)[C@@H](O)[C@H](O)[C@H]3O)[C@@H](O)[C@H]2O)c(=O)[nH]1` showed an Efficacy below 20%.
The compound `CC(=O)N[C@@H]1[C@@H](O)[C@H](O)[C@@H](CO)O[C@@H]1CP(=O)(O)OP(=O)(O)OC[C@H]1O[C@@H](n2ccc(=O)[nH]c2=O)[C@H](O)[C@@H]1O` gave an Efficacy below 50%.
Turning to `O=c1ccn([C@@H]2O[C@H](COP(=O)(O)OP(=O)(O)OC[C@H]3O[C@H](O)C[C@@H](O)[C@@H]3O)[C@@H](O)[C@H]2O)c(=O)[nH]1`, the Efficacy was below 50%.
For the compound `CO/N=c1/ccn([C@@H]2O[C@H](COP(=O)(O)OP(=O)(O)O[C@H]3O[C@H](CO)[C@@H](O)[C@H](O)[C@H]3O)[C@@H](O)[C@H]2O)c(=O)[nH]1`, the Efficacy is below 50%.

One may read the EC50 as the concentration at which the effect is half-maximal. Low readings indicate greater potency, high ones weaker potency.
